The target of test [1] is G protein-coupled receptor kinase 4 (Homo sapiens) (UniProt P32298).
Test [2] concerns the target T1, Tyrosine-protein kinase JAK3 (Homo sapiens) (UniProt P52333).
T1 sequence (whole entry): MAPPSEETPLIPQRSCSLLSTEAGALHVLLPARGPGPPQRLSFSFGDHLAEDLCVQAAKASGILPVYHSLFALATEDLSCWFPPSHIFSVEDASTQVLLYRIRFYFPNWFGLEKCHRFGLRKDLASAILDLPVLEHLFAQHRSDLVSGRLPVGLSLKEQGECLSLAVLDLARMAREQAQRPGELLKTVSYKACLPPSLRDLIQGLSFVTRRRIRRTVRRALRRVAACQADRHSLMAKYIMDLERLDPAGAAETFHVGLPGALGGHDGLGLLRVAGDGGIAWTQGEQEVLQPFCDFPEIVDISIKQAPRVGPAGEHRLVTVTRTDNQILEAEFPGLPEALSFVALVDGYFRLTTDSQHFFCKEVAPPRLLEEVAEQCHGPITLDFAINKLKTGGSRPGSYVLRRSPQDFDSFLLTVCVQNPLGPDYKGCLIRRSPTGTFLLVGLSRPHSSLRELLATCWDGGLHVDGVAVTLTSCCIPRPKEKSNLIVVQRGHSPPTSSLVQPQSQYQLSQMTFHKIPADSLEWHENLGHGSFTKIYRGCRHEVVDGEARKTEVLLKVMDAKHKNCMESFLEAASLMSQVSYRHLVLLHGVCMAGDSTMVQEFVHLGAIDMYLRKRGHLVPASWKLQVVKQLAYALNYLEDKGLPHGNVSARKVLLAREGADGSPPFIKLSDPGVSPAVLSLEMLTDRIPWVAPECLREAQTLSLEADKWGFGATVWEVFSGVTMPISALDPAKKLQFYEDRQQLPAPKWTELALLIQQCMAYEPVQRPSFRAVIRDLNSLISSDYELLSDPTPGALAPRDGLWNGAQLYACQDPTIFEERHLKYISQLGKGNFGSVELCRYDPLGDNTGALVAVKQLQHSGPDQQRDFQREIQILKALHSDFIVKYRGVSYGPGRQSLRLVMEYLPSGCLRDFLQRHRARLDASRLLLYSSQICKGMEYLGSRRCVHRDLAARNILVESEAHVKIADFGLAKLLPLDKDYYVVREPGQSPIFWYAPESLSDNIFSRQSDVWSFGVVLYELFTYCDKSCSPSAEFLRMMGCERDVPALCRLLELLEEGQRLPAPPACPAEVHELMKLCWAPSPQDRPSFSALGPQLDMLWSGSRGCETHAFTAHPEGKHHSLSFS

Test [3] concerns the target Sodium-dependent serotonin transporter (Homo sapiens) (UniProt P31645). Conditions: Compound concentration 10.0 uM.
Test [4] has as its target Phosphatidylinositol 4,5-bisphosphate 3-kinase catalytic subunit alpha isoform (Homo sapiens) (UniProt P42336).
Test [5] can be described thus: PRKCB2 (PKC beta II) Kinase screen. Conditions: Compound concentration 1.0 uM.
For test [6], the target named is Epidermal growth factor receptor (Homo sapiens) (UniProt P00533). Description: EGFR (ErbB1) Kinase screen. Conditions: Compound concentration 1.0 uM.
Chain of Epidermal growth factor receptor (Homo sapiens) (P00533 whole entry): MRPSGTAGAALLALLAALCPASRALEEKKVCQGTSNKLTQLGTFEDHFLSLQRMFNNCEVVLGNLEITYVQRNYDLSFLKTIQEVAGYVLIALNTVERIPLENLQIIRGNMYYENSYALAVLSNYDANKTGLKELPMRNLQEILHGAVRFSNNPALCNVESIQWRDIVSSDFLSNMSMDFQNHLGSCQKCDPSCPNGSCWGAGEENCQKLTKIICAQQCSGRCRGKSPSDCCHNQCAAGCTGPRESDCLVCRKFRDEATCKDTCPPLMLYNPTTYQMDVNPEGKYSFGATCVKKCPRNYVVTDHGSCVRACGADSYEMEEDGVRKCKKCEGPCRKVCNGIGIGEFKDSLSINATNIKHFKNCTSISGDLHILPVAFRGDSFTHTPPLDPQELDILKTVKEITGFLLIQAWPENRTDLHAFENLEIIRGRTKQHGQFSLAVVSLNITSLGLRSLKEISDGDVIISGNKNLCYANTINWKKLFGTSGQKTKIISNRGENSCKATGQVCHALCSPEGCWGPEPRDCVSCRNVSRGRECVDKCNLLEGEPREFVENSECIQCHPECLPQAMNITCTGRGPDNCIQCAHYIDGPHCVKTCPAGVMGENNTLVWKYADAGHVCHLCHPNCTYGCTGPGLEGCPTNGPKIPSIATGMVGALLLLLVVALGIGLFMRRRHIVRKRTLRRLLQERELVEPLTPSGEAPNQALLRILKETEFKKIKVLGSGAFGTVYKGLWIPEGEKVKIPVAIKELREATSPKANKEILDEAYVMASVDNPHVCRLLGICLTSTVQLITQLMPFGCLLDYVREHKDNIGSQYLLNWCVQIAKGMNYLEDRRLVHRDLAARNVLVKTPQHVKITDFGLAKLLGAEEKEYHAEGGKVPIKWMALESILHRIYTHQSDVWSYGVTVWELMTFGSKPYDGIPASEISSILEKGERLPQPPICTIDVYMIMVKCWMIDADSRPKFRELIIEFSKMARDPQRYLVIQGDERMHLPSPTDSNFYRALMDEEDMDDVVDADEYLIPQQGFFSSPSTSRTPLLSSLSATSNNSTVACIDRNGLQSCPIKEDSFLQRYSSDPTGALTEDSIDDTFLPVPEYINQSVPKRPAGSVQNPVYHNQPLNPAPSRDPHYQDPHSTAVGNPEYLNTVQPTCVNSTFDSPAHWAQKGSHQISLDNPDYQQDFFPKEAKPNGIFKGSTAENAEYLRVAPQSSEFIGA
The target in test [7] is Vasopressin V1b receptor (Homo sapiens) (UniProt P47901). Description: Inhibition of Vasopressin V1B at 10 µM in the Eurofins-Panlabs radioligand binding assay (Eurofins_assay_287560). Further details: ligand concentration 1 nM. Conditions: Compound concentration 10.0 uM.
Chain of Vasopressin V1b receptor (Homo sapiens) (P47901 whole entry): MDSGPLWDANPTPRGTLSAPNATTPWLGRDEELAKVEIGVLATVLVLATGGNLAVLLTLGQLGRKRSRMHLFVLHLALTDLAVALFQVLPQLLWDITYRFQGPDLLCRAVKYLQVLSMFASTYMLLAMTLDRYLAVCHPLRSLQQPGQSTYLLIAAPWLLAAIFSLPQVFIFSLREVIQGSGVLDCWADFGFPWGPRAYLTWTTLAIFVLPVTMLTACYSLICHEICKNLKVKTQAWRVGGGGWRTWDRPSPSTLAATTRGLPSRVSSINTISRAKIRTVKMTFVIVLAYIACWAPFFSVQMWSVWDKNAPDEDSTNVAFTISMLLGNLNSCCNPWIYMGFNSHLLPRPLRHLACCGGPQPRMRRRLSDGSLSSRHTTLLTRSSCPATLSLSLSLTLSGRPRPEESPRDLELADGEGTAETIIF
For test [8], the target named is T2, Serine/threonine-protein kinase Nek1 (Homo sapiens) (UniProt Q96PY6).
T2 sequence (whole entry): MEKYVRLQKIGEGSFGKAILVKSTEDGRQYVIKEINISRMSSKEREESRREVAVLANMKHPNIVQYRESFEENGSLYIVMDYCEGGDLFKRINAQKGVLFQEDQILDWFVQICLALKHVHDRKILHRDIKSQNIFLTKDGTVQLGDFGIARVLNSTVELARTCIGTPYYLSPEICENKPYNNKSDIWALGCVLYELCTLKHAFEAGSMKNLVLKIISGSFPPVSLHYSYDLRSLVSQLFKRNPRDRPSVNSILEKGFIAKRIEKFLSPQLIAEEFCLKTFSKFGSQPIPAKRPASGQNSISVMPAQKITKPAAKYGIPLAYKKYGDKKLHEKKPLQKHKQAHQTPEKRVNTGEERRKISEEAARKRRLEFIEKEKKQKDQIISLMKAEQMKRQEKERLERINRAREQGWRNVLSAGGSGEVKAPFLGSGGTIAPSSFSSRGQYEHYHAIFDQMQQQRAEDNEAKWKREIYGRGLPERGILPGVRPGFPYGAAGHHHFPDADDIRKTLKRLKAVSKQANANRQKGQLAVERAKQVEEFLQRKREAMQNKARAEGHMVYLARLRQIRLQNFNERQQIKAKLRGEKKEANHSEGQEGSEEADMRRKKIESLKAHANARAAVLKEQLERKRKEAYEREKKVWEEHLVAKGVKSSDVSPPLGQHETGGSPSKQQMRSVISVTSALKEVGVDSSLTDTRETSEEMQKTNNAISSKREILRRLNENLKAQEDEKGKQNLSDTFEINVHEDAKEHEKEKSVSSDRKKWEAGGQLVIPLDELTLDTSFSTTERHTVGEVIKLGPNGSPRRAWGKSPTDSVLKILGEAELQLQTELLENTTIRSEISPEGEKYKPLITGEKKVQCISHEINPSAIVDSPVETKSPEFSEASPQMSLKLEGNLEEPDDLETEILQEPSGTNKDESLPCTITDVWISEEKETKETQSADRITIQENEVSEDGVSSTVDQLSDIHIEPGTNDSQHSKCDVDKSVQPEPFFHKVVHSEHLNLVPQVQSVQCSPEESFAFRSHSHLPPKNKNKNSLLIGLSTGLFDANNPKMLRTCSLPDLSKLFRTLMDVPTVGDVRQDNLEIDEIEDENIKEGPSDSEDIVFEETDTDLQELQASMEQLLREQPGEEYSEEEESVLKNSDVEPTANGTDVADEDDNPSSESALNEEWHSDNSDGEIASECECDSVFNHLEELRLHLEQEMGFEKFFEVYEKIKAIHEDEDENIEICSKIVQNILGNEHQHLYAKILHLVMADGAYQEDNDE
Briefly: NEK1 Kinase screen. Conditions: Compound concentration 1.0 uM.

[9] abbreviates: Compound concentration 1000.0 nM.
The mark [10] stands for this setting: Compound concentration 100.0 nM.

As usually defined, the residual activity is what remains of the control signal, in per cent. As a reminder, the inhibition is the drop in the measured response relative to a control, in per cent.

Chain of G protein-coupled receptor kinase 4 (Homo sapiens) (P32298 whole entry, looked up): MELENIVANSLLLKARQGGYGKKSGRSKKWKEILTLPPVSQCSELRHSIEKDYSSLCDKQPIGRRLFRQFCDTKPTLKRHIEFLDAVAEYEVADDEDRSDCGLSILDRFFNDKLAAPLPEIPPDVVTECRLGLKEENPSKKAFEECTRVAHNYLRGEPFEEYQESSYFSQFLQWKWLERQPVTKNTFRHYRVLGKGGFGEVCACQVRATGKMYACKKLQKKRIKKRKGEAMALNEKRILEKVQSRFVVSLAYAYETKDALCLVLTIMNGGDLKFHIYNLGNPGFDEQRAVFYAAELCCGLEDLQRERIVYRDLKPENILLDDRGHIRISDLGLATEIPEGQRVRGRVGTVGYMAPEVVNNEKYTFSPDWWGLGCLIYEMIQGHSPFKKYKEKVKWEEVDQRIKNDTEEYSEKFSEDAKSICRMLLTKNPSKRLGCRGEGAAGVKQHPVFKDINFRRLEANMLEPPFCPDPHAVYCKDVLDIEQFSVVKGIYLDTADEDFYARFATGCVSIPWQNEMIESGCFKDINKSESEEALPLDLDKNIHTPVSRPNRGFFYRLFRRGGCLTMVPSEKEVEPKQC
Chain of Sodium-dependent serotonin transporter (Homo sapiens) (P31645 whole entry, looked up, canonical isoform): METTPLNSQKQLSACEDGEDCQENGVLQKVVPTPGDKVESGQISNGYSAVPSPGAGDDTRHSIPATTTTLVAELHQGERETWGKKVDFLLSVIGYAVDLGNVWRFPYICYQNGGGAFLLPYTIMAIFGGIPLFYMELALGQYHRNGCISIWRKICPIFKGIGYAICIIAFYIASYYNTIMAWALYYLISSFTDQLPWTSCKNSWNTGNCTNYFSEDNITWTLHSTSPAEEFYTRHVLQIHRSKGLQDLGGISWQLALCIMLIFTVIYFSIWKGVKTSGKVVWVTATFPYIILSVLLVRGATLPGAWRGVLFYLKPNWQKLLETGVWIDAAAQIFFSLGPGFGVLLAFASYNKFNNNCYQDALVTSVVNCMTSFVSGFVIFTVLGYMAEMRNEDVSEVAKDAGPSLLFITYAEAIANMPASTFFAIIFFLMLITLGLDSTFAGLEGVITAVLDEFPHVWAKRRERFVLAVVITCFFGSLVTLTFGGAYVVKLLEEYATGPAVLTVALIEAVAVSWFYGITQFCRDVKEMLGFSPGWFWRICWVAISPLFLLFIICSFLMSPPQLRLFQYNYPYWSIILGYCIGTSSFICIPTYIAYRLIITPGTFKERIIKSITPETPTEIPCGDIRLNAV
Chain of Phosphatidylinositol 4,5-bisphosphate 3-kinase catalytic subunit alpha isoform (Homo sapiens) (P42336 whole entry, canonical isoform): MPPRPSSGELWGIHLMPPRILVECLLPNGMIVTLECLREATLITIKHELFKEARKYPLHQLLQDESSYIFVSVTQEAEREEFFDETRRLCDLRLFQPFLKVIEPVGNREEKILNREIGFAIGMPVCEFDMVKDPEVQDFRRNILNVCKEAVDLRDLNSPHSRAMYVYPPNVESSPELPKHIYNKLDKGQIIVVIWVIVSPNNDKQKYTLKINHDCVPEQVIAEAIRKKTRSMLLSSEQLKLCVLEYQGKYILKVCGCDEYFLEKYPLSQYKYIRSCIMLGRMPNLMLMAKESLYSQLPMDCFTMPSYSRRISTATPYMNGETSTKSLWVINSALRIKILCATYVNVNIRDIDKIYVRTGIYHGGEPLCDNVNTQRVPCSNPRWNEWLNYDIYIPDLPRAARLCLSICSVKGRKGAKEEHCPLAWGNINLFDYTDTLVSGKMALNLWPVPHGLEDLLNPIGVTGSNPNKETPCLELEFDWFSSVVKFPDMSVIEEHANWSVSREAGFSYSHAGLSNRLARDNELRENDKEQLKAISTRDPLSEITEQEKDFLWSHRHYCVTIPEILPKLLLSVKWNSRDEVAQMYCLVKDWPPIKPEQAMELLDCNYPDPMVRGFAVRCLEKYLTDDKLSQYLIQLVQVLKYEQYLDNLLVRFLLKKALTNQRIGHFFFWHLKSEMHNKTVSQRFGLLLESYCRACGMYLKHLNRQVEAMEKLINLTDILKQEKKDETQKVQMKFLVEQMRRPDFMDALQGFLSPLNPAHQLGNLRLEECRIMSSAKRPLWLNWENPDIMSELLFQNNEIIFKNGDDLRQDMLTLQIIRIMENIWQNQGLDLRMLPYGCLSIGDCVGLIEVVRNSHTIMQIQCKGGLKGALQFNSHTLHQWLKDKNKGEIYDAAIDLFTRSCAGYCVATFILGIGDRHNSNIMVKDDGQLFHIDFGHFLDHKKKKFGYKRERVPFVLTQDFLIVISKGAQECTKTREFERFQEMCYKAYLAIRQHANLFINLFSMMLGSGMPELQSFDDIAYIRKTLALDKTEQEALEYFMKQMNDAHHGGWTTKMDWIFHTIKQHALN

Consider `C[C@@H]1CN(c2cc(-c3nn(C)c4ccc(OC5(C)CC5)cc34)ncn2)C[C@H](C)O1` [MLi-2-NC], for which the values for the residual activity in test [1] (setting [9]), in test [2] (setting [9]) and in test [4] (setting [9]) were 96%, 12% and 100%, respectively. Further, the inhibition in test [3] was -3.49%.

As to `C[C@@H]1CN(c2cc(-c3n[nH]c4ccc(OC5(C)CC5)cc34)ncn2)C[C@H](C)O1` [MLi-2], the inhibition is 10.4% in test [5]; -0.77% in test [6]; 1% in test [7]; 3.48% in test [8]; -2.29% in test [3]. Moreover, the results for the residual activity in test [1] (setting [10]), in test [2] (setting [10]) and in test [4] (setting [10]) were 100%, 0% and 100%, respectively.

For the origin of these results see ChEMBL document CHEMBL4507291 (2021).
